From patent US20170143701A1, “CARBOHYDRATE METABOLISM-AMELIORATING AGENT” (SUNTORY HOLDINGS LIMITED, priority 2014, published 2017)

Tested on: C57/BL6J mice
Test: In vivo plasma GLP-1 level-increasing action: plasma active GLP-1 level (ELISA) after oral administration
Conditions: 10 mg/kg oral; for Significant difference (p < 0.05) vs control group, plasma active GLP-1 level: 30 minutes, Student's t-test; for Plasma active GLP-1 level (relative value to control group as 100), average value: blood 30 minutes after, 0.5% CMC-Na group = 100
Experimental: Seven-week-old male C57/BL6J mice were purchased from CLEA Japan, Inc. for use, and they were subjected to an experiment after 1 week of a habituation period.
After the habituation period, the mice were subjected to 5.5 hours of food deprivation and 2 hours of water deprivation. Thereafter, a cyclic dipeptide dissolved or suspended in a 0.5% CMC-Na aqueous solution in 10 mg/kg was orally administered to each mouse forcibly. After 30 minutes, the blood was collected from the abdominal vena cava under anesthesia, and 1 μL of heparin sodium and 1 μL of 10 mM Sitagliptin phosphate were added to each collected blood, which was then subjected to centrifugation at 8000 rpm for 10 minutes to recover the plasma, and the plasma active GLP-1 level was measured by using the ELISA kit. In the analysis, the active GLP-1 level for a group administered with 0.5% CMC-Na aqueous solution was defined as 100, and relative values thereto were used.

O=C(O)CC[C@@H]1NC(=O)[C@H](Cc2ccc(O)cc2)NC1=O [compound 87, Cyclo(Glu-Tyr)]
Significant difference (p < 0.05) vs control group, plasma active GLP-1 level (Table 12, Experiment 7): No
Plasma active GLP-1 level (relative value to control group as 100), average value (Table 12, Experiment 7): 141

CC(C)[C@@H]1NC(=O)[C@H](Cc2ccc(O)cc2)NC1=O [compound 88, cyclo-valyl-tyrosine]
Significant difference (p < 0.05) vs control group, plasma active GLP-1 level (Table 12, Experiment 7): Yes
Plasma active GLP-1 level (relative value to control group as 100), average value (Table 12, Experiment 7): 385

CCC(C)C1NC(=O)C(Cc2ccc(O)cc2)NC1=O (stereo not shown) [compound 89, Cyclo(Ile-Tyr)]
Significant difference (p < 0.05) vs control group, plasma active GLP-1 level (Table 12, Experiment 7): No
Plasma active GLP-1 level (relative value to control group as 100), average value (Table 12, Experiment 7): 222

C[C@@H](O)[C@@H]1NC(=O)[C@H](Cc2ccc(O)cc2)NC1=O [compound 90, cyclo-threonyl-tyrosine]
Significant difference (p < 0.05) vs control group, plasma active GLP-1 level (Table 12, Experiment 7): Yes
Plasma active GLP-1 level (relative value to control group as 100), average value (Table 12, Experiment 7): 466

O=C(O)C[C@@H]1NC(=O)[C@H](Cc2ccc(O)cc2)NC1=O [compound 91, Cyclo(Asp-Tyr)]
Significant difference (p < 0.05) vs control group, plasma active GLP-1 level (Table 12, Experiment 7): No
Plasma active GLP-1 level (relative value to control group as 100), average value (Table 12, Experiment 7): 181

NC(=O)C[C@@H]1NC(=O)[C@H](Cc2ccc(O)cc2)NC1=O [compound 92, Cyclo(Asn-Tyr)]
Significant difference (p < 0.05) vs control group, plasma active GLP-1 level (Table 12, Experiment 7): No
Plasma active GLP-1 level (relative value to control group as 100), average value (Table 12, Experiment 7): 181

NC(=O)CC[C@@H]1NC(=O)[C@H](Cc2ccc(O)cc2)NC1=O [compound 93, cyclo-glutaminyl-tyrosine]
Significant difference (p < 0.05) vs control group, plasma active GLP-1 level (Table 12, Experiment 7): Yes
Plasma active GLP-1 level (relative value to control group as 100), average value (Table 12, Experiment 7): 344

N=C(N)NCCCC1NC(=O)C(Cc2ccc(O)cc2)NC1=O (stereo not shown) [compound 94, Cyclo(Arg-Tyr)]
Significant difference (p < 0.05) vs control group, plasma active GLP-1 level (Table 12, Experiment 7): No
Plasma active GLP-1 level (relative value to control group as 100), average value (Table 12, Experiment 7): 222

CC(C)C[C@@H]1NC(=O)[C@H](Cc2cnc[nH]2)NC1=O [compound 103, Cyclo(His-Leu)]
Significant difference (p < 0.05) vs control group, plasma active GLP-1 level (Table 13, Experiment 8): No
Plasma active GLP-1 level (relative value to control group as 100), average value (Table 13, Experiment 8): 94

CC(C)CC1NC(=O)C(C(C)O)NC1=O (stereo not shown) [compound 105, Cyclo(Thr-Leu)]
Significant difference (p < 0.05) vs control group, plasma active GLP-1 level (Table 13, Experiment 8): No
Plasma active GLP-1 level (relative value to control group as 100), average value (Table 13, Experiment 8): 94

CC(C)CC1NC(=O)C(CC(N)=O)NC1=O (stereo not shown) [compound 106, Cyclo(Asn-Leu)]
Significant difference (p < 0.05) vs control group, plasma active GLP-1 level (Table 13, Experiment 8): No
Plasma active GLP-1 level (relative value to control group as 100), average value (Table 13, Experiment 8): 94

CC(C)C1NC(=O)C(Cc2cnc[nH]2)NC1=O (stereo not shown) [compound 108, Cyclo(Val-His)]
Significant difference (p < 0.05) vs control group, plasma active GLP-1 level (Table 13, Experiment 8): No
Plasma active GLP-1 level (relative value to control group as 100), average value (Table 13, Experiment 8): 118

CC(C)C1NC(=O)C(CCC(=O)O)NC1=O (stereo not shown) [compound 118, Cyclo(Val-Glu)]
Significant difference (p < 0.05) vs control group, plasma active GLP-1 level (Table 13, Experiment 8): No
Plasma active GLP-1 level (relative value to control group as 100), average value (Table 13, Experiment 8): 112

CCC(C)C1NC(=O)C(CCSC)NC1=O (stereo not shown) [compound 119, Cyclo(Met-Ile)]
Significant difference (p < 0.05) vs control group, plasma active GLP-1 level (Table 13, Experiment 8): No
Plasma active GLP-1 level (relative value to control group as 100), average value (Table 13, Experiment 8): 106

CSCCC1NC(=O)C(Cc2cnc[nH]2)NC1=O (stereo not shown) [compound 120, cyclo-methionyl-histidine]
Significant difference (p < 0.05) vs control group, plasma active GLP-1 level (Table 13, Experiment 8): Yes
Plasma active GLP-1 level (relative value to control group as 100), average value (Table 13, Experiment 8): 154

CC1NC(=O)C(C(C)C)NC1=O (stereo not shown) [compound 122, Cyclo(Val-Ala)]
Significant difference (p < 0.05) vs control group, plasma active GLP-1 level (Table 13, Experiment 8): No
Plasma active GLP-1 level (relative value to control group as 100), average value (Table 13, Experiment 8): 94

CCC(C)C1NC(=O)C(C)NC1=O (stereo not shown) [compound 123, Cyclo(Ile-Ala)]
Significant difference (p < 0.05) vs control group, plasma active GLP-1 level (Table 14, Experiment 9): No
Plasma active GLP-1 level (relative value to control group as 100), average value (Table 14, Experiment 9): 120

CSCCC1NC(=O)C(C)NC1=O (stereo not shown) [compound 125, cyclo-methionyl-alanine]
Significant difference (p < 0.05) vs control group, plasma active GLP-1 level (Table 14, Experiment 9): Yes

CSCC[C@@H]1NC(=O)CNC1=O [compound 127, cyclo-methionyl-glycine]
Significant difference (p < 0.05) vs control group, plasma active GLP-1 level (Table 14, Experiment 9): Yes
Plasma active GLP-1 level (relative value to control group as 100), average value (Table 14, Experiment 9): 124

CC(C)C1NC(=O)C(CO)NC1=O (stereo not shown) [compound 132, cyclo-valyl-serine]
Significant difference (p < 0.05) vs control group, plasma active GLP-1 level (Table 14, Experiment 9): Yes
Plasma active GLP-1 level (relative value to control group as 100), average value (Table 14, Experiment 9): 129

CC[C@H](C)[C@@H]1NC(=O)[C@H](CO)NC1=O [compound 133, cyclo-isoleucyl-serine]
Significant difference (p < 0.05) vs control group, plasma active GLP-1 level (Table 14, Experiment 9): Yes
